Key:
[1] = target: T1, LXRα (Homo sapiens, UniProt Q13133); assay: LXRα transactivation, luciferase reporter assay in HepG2 cells; type: cell-based; settings: for EC50: dose-response 1-50 μM, mean ± SE, read-out: LXRα Affinity (EC50); for Emax at 10 µM: compound 10 μM vs GW3965 10 μM (=100%), NA = no activity at 10 μM, read-out: LXRα Efficacy (% vs GW3965)
T1 construct: expressed in transfected cells; host or cells: HepG2
T1 sequence (Q13133 209-447 limits assumed): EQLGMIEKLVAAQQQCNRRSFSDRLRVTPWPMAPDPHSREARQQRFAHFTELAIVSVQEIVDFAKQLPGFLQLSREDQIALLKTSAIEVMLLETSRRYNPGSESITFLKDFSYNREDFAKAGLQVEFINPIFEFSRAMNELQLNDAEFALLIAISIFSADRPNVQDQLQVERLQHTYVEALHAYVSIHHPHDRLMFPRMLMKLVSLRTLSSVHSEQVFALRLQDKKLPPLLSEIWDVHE
Description: Derivatives 4–30 were tested for their activity in a luciferase reporter assay with HepG2 and HEK-293T cells transfected with LXRα,β and GPBAR1, respectively. Table 1 reports the efficacy of tested compounds compared to those of reference compounds, GW3965 for LXRα/β and TLCA for GPBAR1.
Each compound was tested at the concentration of 10 μM and transactivation activity of GW3965 on LXRs and TLCA on CRE (i.e. TGR5/GPBAR1) was considered equal to 100%.
To evaluate LXRα mediated transactivation, HepG2 cells were transfected with 20 ng of the reporter vector p(UAS)5XTKLuc, 100 ng of a vector containing the ligand binding domain of LXRα cloned upstream of the GAL4-DNA binding domain (i.e. pSG5-LXRαLBD-GAL4DBD) and […] pGL4.70 (Promega), a vector encoding the human Renilla gene. To evaluate GPBAR1 mediated transactivation, HEK-293T cells were transfected with 200 ng of human pGL4.29 (Promega), a reporter vector containing a cAMP response element (CRE) that drives the transcription of the luciferase reporter gene luc2P, with 100 ng of pCMVSPORT6-human GPBAR1, and with 100 ng of pGL4.70 Renilla. To evaluate FXR mediated transactivation, HepG2 cells were transfected with 100 ng of human pSG5-FXR, 100 ng of human pSG5-RXR, 200 ng of the reporter vector p(hsp27)-TK-LUC containing the FXR response element IR1 cloned from the promoter of heat shock protein 27 (hsp27) and with 100 ng of pGL4.70 Renilla. At 24 h post-transfection, cells were stimulated 18 h with 10 μM GW3965, TLCA, or CDCA and compounds 4–30 (10 μM). Luciferase activities were assayed and normalized with Renilla activities. Dose-response curves were performed in HepG2 and HEK-293T cells transfected as described above and then treated with increasing concentrations of compounds 4, 5, 8, 9, 12–15, 17, 20, 21, 24, 25, 27, 29, 30 (1, 5, 10, 25 and 50 μM). At 18 h post stimulations, cellular lysates were assayed for luciferase and Renilla activities using the Dual-Luciferase Reporter assay system (E1980, Promega). Luminescence was measured using Glomax 20/20 luminometer (Promega). Luciferase activities (RLU) were normalized with Renilla activities (RRU).

[2] = target: T2, GPBAR1 (Homo sapiens, UniProt Q8TDU6); assay: GPBAR1 transactivation, CRE-luciferase reporter assay in HEK-293T cells; type: cell-based; settings: dose-response 1-50 μM, mean ± SE of 3 experiments in duplicate, read-out: GPBAR1 Affinity (EC50)
T2 construct: expressed in transfected cells; host or cells: HEK-293T
T2 sequence (Q8TDU6 1-330): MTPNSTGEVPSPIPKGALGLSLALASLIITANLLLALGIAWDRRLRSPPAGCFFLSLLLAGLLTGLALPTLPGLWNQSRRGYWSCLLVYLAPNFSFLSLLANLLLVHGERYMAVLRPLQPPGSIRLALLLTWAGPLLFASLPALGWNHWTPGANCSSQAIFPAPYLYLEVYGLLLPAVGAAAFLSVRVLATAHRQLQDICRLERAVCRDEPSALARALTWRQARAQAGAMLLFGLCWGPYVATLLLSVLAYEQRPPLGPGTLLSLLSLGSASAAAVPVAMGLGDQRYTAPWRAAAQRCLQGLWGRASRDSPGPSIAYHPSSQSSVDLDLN

[3] = tested on: C57BL6 mice; assay: Two-week oral administration to intact C57BL6 mice (serum chemistry, liver histology, liver and ileum gene expression); type: in vivo; settings: 30 mg/Kg daily by oral gavage, two weeks
Description: C57BL6 mice were administered with 14 (30 mg/Kg daily by oral gavage) for two weeks.
C57BL6 mice were originally donated by Dr. Galya Vassileva (Schering-Plough Research Institute, Kenilworth). The colonies were maintained in the animal facility of University of Perugia. […] Mice were housed under controlled temperatures (22 °C) and photoperiods (12:12-h light/dark cycle), allowed unrestricted access to standard mouse chow and tap water and allowed to acclimate to these conditions for at least 5 days before inclusion in an experiment. The study was conducted in agreement with the Italian law and the protocol was approved by ethical committee of University of Perugia and by National committee of Ministry of Health (permission n. 42/2014-B). The Veterinarian monitored the health and body conditions of the animals daily in the animal facility. The study protocol caused minor suffering; however, animals that lost more than 25% of the initial body weight were euthanized. At the day of sacrifice mice were deeply anesthetized with a mixture of tiletamine […] and zolazepam […]/xylazine at a dose of 50/5 mg/Kg. Blood, liver and terminal ileum were collected for further analysis. Aspartate aminotransferase (AST), total cholesterol and triglycerides were measured by routine biochemical clinical chemistry. For histological examination, portions of liver lobes were fixed in 10% formalin, embedded in paraffin, sectioned (5 μm thin) and stained with Hematoxylin/Eosin (H&E) for morphometric analysis.

[4] = tested on: pro-glucagon mRNA expression; assay: RT-PCR of GPBAR1 target gene pro-glucagon in Glutag cells; settings: Mus musculus, 18 h, read-out: EC50 for induction of pro-glucagon mRNA
Description: (§1) HepG2 and Glutag cells were plated at 1 × 10^6 cells/well in a 6 well plate.
(§2) Total RNA was isolated from HepG2 or Glutag cells and from animal tissues (liver and terminal ileum) using the TRIzol reagent according to the manufacturer’s specifications (Invitrogen). One microgram of purified RNA was treated with DNase-I and reverse transcribed with Superscript II (Invitrogen). For Real Time PCR, 25 ng template was dissolved in 25 μL containing 200 nmol/L of each primer and 12.5 μL of 2 × SYBR FAST Universal ready mix (Invitrogen). […] The relative mRNA expression was calculated and expressed as 2^(−ΔΔCt).

[5] = tested on: SREBP1c mRNA expression; assay: RT-PCR of LXRα target gene SREBP1c in HepG2 cells; settings: Homo sapiens, HepG2, 18 h, read-out: EC50 for induction of SREBP1c gene expression
Description: as §1, §2

[6] = tested on: ABCA1 mRNA expression; assay: RT-PCR of LXRα target gene ABCA1 in HepG2 cells; settings: Homo sapiens, HepG2, 18 h, read-out: EC50 for induction of ABCA1 gene expression
Description: as §1, §2

[7] = tested on: GPBAR1 (also known as TGR5); settings: in vitro studies; cited from earlier work

| Structure (SMILES) | EC50 [1] | EC50 [2] | further results |
| --- | --- | --- | --- |
| CC(C)=CCCC(C)C1CCC2C3CC(O)C4CC(O)CCC4(C)C3CCC12C (stereo not shown) [Compound 4] | 6.99 ± 0.31 µM |  |  |
| CC(C)CCCC(C)C1CCC2C3CC(O)C4CC(O)CCC4(C)C3CCC12C (stereo not shown) [Compound 5] | 8.2 ± 0.16 µM |  | Emax at 10 µM [1]: 73% |
| C=CCCC(C)C1CCC2C3CC(O)C4CC(O)CCC4(C)C3CCC12C (stereo not shown) [Compound 8] | 2.7 ± 0.65 µM |  |  |
| CCCCC(C)C1CCC2C3CC(O)C4CC(O)CCC4(C)C3CCC12C (stereo not shown) [Compound 9] | 5.1 ± 0.43 µM |  |  |
| CC(CCCCc1ccccc1)C1CCC2C3CC(O)C4CC(O)CCC4(C)C3CCC12C (stereo not shown) [Compound 12] | 12.4 ± 0.41 µM |  | Emax at 10 µM [1]: 63% |
| CC(C)=CCC(C)C1CCC2C3CC(O)C4CC(O)CCC4(C)C3CCC12C (stereo not shown) [Compound 13] | 22.3 ± 3.05 µM | 4.2 ± 0.79 µM |  |
| CC(C)CCC(C)C1CCC2C3CC(O)C4CC(O)CCC4(C)C3CCC12C (stereo not shown) [Compound 14] | 3.2 ± 0.03 µM | 4.9 ± 0.2 µM | expression of GPBAR1 target genes GLP1 and Fgf21 in terminal ileum ([3]; Real-Time PCR): increases; liver expression of steatosis marker genes FAS, SREBP1c, CD36 and PPARs ([3]; Real-Time PCR on liver tissue): does not induce; liver histology (H&E staining), fat deposition ([3]; vs control): no differences; plasmatic level of AST ([3]; vs control): no effects; plasmatic level of cholesterol ([3]; vs control): no effects; plasmatic level of triglycerides ([3]; vs control): no effects; EC50 [4]: 6.5 µM; EC50 [5]: 5.8 µM; EC50 [6]: 8.3 µM; Emax at 10 µM [1]: 109% |
| C=CCC(C)C1CCC2C3CC(O)C4CC(O)CCC4(C)C3CCC12C (stereo not shown) [Compound 15] |  | 3.7 ± 0.38 µM |  |
| C=CC(C)C1CCC2C3CC(O)C4CC(O)CCC4(C)C3CCC12C (stereo not shown) [Compound 17] |  | 2.54 ± 0.015 µM |  |
| CCCC[C@@H](C)[C@H]1CCC2C3CC[C@@H]4C[C@H](O)CC[C@]4(C)C3CC[C@@]21C (stereo partly shown) [Compound 20] |  | 6.8 ± 0.08 µM |  |
| CC(C)=CCC[C@@H](C)[C@H]1CCC2C3CC[C@@H]4C[C@H](O)CC[C@]4(C)C3CC[C@@]21C (stereo partly shown) [Compound 21] |  | 5.9 ± 0.055 µM |  |
| CC[C@@H](C)[C@H]1CCC2C3CC[C@@H]4C[C@H](O)CC[C@]4(C)C3CC[C@@]21C (stereo partly shown) [Compound 24] |  | 0.91 ± 0.092 µM |  |
| CC(C)=CCC[C@@H](C)[C@H]1CCC2C3CC[C@H]4C[C@@H](O)CC[C@]4(C)C3CC[C@@]21C (stereo partly shown) [Compound 25] |  | 7.6 ± 0.71 µM |  |
| C=CCC[C@@H](C)[C@H]1CCC2C3CC[C@H]4C[C@@H](O)CC[C@]4(C)C3CC[C@@]21C (stereo partly shown) [Compound 27] |  | 1 ± 0.062 µM |  |
| C=C[C@@H](C)[C@H]1CCC2C3CC[C@H]4C[C@@H](O)CC[C@]4(C)C3CC[C@@]21C (stereo partly shown) [Compound 29] |  | 4.9 ± 0.06 µM |  |
| CC[C@@H](C)[C@H]1CCC2C3CC[C@H]4C[C@@H](O)CC[C@]4(C)C3CC[C@@]21C (stereo partly shown) [Compound 30] |  | 1.98 ± 0.145 µM |  |
| C[C@H](CCC(=O)O)[C@H]1CC[C@H]2[C@@H]3C[C@H](O)[C@@H]4C[C@H](O)CC[C@]4(C)[C@H]3CC[C@]12C [HDCA, hyodeoxycholic acid] |  |  | EC50 [7]: 31.6 µM |
